Test [1] deals with T1, SULT1A1 Canis lupus familiaris (Canis lupus familiaris, UniProt Q29476).
T1 construct: 1, 3, 4, 5, and 6 were cloned amplified from liver tissue cDNA; expressed in transfected cells; host or cells: E. coli BL21(DE3)pLysS
Nature of the test: Production of zosteric acid from pHCA in E. coli expressing a sulfotransferase. The class given is cell-based. The settings on record: E. coli BL21(DE3)pLysS expressing SULT1A1 Canis lupus familiaris; M9 glucose, 0.1 mM IPTG, 0.1 mM pHCA; four days. The source says:
(§1) A range of aryl sulfotransferases including SULT1A1 Rattus norvegicus (SEQ ID NO: 1), SULT1A1 Homo sapiens (SEQ ID NO: 2), SULT1A1 Equus caballus (SEQ ID NO: 3), SULT1A1 Sus scrofa domesticus (SEQ ID NO: 4), SULT1A1 Canis lupus familiaris (SEQ ID NO: 5) and SULT1E1 Gallus gallus domesticus (SEQ ID NO: 6) were expressed in Escherichia coli. […]. The nucleotide sequence of the gene encoding SEQ ID NO: 2 was codon optimized for expression in Escherichia coli (GeneArt, Life Technologies) and amplified by PCR using the primers in Table 1. The pETDuet-1 plasmid was digested with restriction endonucleases NcoI and SalI. The PCR products were then individually cloned into the plasmid pETDuet-1 using the Gibson reaction (New England Biolabs). The resulting plasmids were transformed into BL21(DE3)pLysS (Life Technologies).
(§2) The strains were grown in M9 minimal media containing glucose as a carbon source, and 0.1 mM IPTG for induction of gene expression as well as 0.1 mM p-coumaric acid (pHCA). After four days of growth, samples were withdrawn by filtration and analyzed by HPLC.
(§3) The concentration of p-courmaric acid (pHCA) and zosteric acid in the supernatant was quantified by high performance liquid chromatography (HPLC) and compared to chemical standards. HPLC was done on a Thermo setup using a HS-F5 column and mobile phases: 5 mM ammonium formate pH 4.0 (A) and acetonitrile (B) at 1.5 mL min-1, using a gradient elution starting at 5% B. From 0.5 min after injection to 7 min, the fraction of B increased linearly from 5% to 60%, and between 9.5 min and 9.6 the fraction of B decreased back to 5%, and remaining there until 12 min. pHCA and zosteric acid were quantified by measuring absorbance at 277 nm.

Test [2] addresses T2, SULT1A1 Rattus norvegicus (Rattus norvegicus, UniProt P17988).
T2 construct: 1, 3, 4, 5, and 6 were cloned amplified from liver tissue cDNA; expressed in transfected cells
Described as above. The class given is cell-based. The conditions noted are these: E. coli BL21(DE3)pLysS expressing SULT1A1 Rattus norvegicus; M9 glucose, 0.1 mM IPTG, 0.1 mM pHCA; four days; culture media, HPLC.
Source text: as §1, §2, §3

The target in test [3] is T3, SULT1A1 human (Homo sapiens, UniProt P50225, V223M).
T3 construct: expressed in transfected cells; host or cells: E. coli BL21(DE3)pLysS
The description is as above. The conditions noted are these: E. coli BL21(DE3)pLysS expressing SULT1A1 Homo sapiens; M9 glucose, 0.1 mM IPTG, 0.1 mM pHCA; four days. The format is cell-based.
Source text: as §1, §2, §3

The target in test [4] is T3, SULT1A1 human. The test can be described thus: pHCA and zosteric acid in culture media of E. coli expressing an aryl sulfotransferase in combination with cysDNC and cysQ. The class given is cell-based. The settings on record: Enzymes: SULT1A1 Homo sapiens, grown as in Example 1 (0.1 mM pHCA). On the procedure:
as §2, §3
The addition of sulfated groups to targets is dependent on supply of the donor molecule 3′-Phosphoadenosine 5′-phosphosulfate (PAPS). We examined if we could increase the production of zosteric acid by overexpressing enzymes providing PAPS and an enzyme that removes the product 3′-Phosphoadenosine 5′-phosphate (PAP).
In E. coli, the genes cysD and cysN encode the two subunits of ATP sulfurylase (EC:2.7.7.4), cysC encodes APS kinase (EC:2.7.1.25), and cysQ encode a PAP phosphatase.
The plasmid pRSFDuet-1 (Life Technologies) was digested by the restriction endonucleases NdeI and BgIII. The gene cluster was inserted into the digested plasmid using the Gibson reaction (New England Biolabs). […] For the combined expression of cysDNC and cysQ in an artificial operon, cysDNCQ, the two parts were amplified by PCR from E. coli MG1655 chromosomal DNA using the primers shown in Table 3. Again the parts were inserted into the digested plasmid. […] The plasmid expressing SULT1A1 Homo sapiens (SEQ ID NO: 2) from example 1 was co-transformed into E. coli BL21(DE3)pLysS cells (Life Technologies) with either the plasmid expressing cysDNC or cysDNCQ.
Cells were grown as in Example 1 and the supernatants were analyzed for product formation as in example 1. The strain expressing SULT1A1 in combination with cysDNCQ was also grown without the addition of IPTIG for induction.

Another test addresses T4, RmXAL (Rhodotorula mucilaginosa, UniProt P10248).
T4 construct: The gene encoding RmXAL was codon optimized using standard algorithms for expression in E. coli; expressed in transfected cells; host or cells: E. coli BL21(DE3)pLysS
Nature of the test: pHCA and zosteric acid in culture media of E. coli expressing a tyrosine ammonia lyase. The class given is cell-based, Rhodotorula mucilaginosa/Rhodotorula rubra. The settings on record: E. coli BL21(DE3)pLysS expressing RmXAL alone, M9 glucose, 0.1 mM IPTG, no substrate added. On the procedure:
as §3
The enzyme RmXAL from Rhodotorula mucilaginosa/Rhodotorula rubra (SEQ ID NO: 46) has tyrosine ammonia lyase activity, thus catalyzing the non-oxidative deamination of the amino acid tyrosine, releasing p-coumaric acid (pHCA) and ammonia. The gene encoding RmXAL was codon optimized using standard algorithms for expression in E. coli available by GeneArt (Life Technologies) and amplified by PCR using the primers shown in Table 5 and inserted into the pCDFDuet-1 vector (Novagen/Life Technologies), which had been digested by the restriction enzymes NdeI and BgIII, using Gibson reaction (New England Biolabs). […]

SMILES strings stand for the structures.

T3 sequence (P50225 whole entry V223M): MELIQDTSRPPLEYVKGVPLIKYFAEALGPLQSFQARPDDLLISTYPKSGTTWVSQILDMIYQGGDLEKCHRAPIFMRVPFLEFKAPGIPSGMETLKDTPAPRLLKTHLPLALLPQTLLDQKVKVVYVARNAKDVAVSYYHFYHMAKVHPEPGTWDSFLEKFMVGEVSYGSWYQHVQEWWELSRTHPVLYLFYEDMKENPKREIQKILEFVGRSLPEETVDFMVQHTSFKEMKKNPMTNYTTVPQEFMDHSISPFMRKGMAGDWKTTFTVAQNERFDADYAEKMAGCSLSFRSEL
T2 sequence (P17988 whole entry): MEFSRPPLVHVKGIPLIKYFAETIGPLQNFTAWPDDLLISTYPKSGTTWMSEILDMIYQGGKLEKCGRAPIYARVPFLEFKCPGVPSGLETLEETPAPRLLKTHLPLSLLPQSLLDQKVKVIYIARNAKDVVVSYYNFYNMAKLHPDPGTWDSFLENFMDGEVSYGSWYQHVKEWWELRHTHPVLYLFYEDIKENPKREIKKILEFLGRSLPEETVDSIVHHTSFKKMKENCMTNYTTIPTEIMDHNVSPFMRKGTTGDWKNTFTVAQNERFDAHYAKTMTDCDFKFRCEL
T4 sequence (P10248 whole entry): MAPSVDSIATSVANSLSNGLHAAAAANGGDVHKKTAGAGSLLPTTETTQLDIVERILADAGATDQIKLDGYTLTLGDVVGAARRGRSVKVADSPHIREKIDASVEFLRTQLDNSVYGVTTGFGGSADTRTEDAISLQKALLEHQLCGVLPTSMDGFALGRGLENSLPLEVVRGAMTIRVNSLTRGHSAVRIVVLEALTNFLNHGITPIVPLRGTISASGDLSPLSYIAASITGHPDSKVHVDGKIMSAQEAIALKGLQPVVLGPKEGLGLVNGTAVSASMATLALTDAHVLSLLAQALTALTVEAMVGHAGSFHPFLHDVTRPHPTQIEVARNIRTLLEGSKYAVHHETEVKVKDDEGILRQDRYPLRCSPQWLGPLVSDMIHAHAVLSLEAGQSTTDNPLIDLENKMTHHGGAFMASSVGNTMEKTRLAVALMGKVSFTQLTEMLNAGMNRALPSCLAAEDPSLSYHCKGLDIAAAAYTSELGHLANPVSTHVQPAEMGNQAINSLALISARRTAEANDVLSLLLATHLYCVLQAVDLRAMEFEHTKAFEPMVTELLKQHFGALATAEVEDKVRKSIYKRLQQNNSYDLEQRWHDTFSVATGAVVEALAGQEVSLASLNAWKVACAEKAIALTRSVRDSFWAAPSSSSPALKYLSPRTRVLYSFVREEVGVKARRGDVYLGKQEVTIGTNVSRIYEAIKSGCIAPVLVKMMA
T1 sequence (Q29476 whole entry): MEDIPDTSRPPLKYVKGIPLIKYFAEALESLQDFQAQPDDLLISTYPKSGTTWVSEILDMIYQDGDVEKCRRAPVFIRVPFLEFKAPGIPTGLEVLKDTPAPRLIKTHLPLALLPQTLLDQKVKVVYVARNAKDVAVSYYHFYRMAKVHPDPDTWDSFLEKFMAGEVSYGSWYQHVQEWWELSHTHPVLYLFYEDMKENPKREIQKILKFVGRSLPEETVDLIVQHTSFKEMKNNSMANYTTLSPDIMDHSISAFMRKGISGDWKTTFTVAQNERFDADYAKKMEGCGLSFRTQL

Consider `O=C(O)/C=C/c1ccc(OS(=O)(=O)O)cc1` [Zosteric acid, zosteric acid], for which the Zosteric acid formed in test [1] stood at 0.01 mM; in test [2] it was 0.10 mM; on SULT1A1 human [3], 0.02 mM; at SULT1A1 human [4] (CysDNC, induction 0.1 mM IPTG), 0.06 mM; on SULT1A1 human [4] (CysDNCQ, induction 0.1 mM IPTG), 0.09 mM; on SULT1A1 human [4] (induction 0.1 mM IPTG) it was 0.02 mM. Further, the Zosteric acid formed entry at RmXAL is on record as “Not detectable”.

For `O=C(O)/C=C/c1ccc(O)cc1` [pHCA, p-coumaric acid], the pHCA remaining in test [1] was 0.10 mM; in test [2] it was 0.02 mM; on SULT1A1 human [3] it was 0.08 mM; at SULT1A1 human [4] (CysDNC, induction 0.1 mM IPTG) it was 0.06 mM; at SULT1A1 human [4] (CysDNCQ, induction 0.1 mM IPTG), 0.04 mM; at SULT1A1 human [4] (CysDNCQ, induction None), 0.10 mM. For the same molecule, at SULT1A1 human [4] (induction 0.1 mM IPTG), the pHCA remaining was 0.08 mM. The same molecule yielded a pHCA on RmXAL of 0.04 mM.
